Test system: T1, lactose oxidase (LOD)
T1 construct: native enzyme purified from wheat bran solid culture; 2 Zn per mole, no FAD or heme
Experiment: peroxidase-4-aminoantipyrine assay, Hanes-Woolf plot
Type: biochemical, Myrmecridium flexuosum
Details: 50 mM Tris-HCl pH 7.8, 30 °C, O2 as acceptor
Excerpt: peroxidase-4-aminoantipyrine assay, Hanes-Woolf plot on lactose oxidase (LOD)

[1] = substrate inhibition above 1 mM

Row | Km [1] | Km | Compound
1 | 63 µM |  | OC[C@H]1O[C@@H](O[C@H]2[C@H](O)[C@@H](O)C(O)O[C@@H]2CO)[C@H](O)[C@@H](O)[C@@H]1O (stereo partly drawn) [Cellobiose]
2 | 76 µM |  | OC[C@H]1O[C@@H](O[C@H]2[C@H](O)[C@@H](O)C(O)O[C@@H]2CO)[C@H](O)[C@@H](O)[C@H]1O (stereo partly drawn) [Lactose]
3 |  | 22000 µM | OC[C@H]1O[C@H](O[C@H]2[C@H](O)[C@@H](O)C(O)O[C@@H]2CO)[C@H](O)[C@@H](O)[C@@H]1O (stereo partly drawn) [Maltose]

From PMC6356164, “Identification of a novel lactose oxidase in Myrmecridium flexuosum NUK‐21” (FEBS Open Bio, 2019)
